Broadly, the efflux ratio is a quotient of directional permeabilities that is used to spot active efflux.

Data on two molecules can be found in patent US12215106B2, “Pharmaceutical compounds and therapeutic methods” (RUTGERS, THE STATE UNIVERSITY OF NEW JERSEY, priority 2018, dated 2025).

Structures can show the parent of a compound that is named as a salt. Bounds are passed on as bounds.

Data set [1] deals with GBM cells. Description: Cell viability dose response in GBM cells (Vi-CELL, CellTiter-Glo). To be noted: compared with controls (DMSO and Temozolomide). Format: cell-based. As for the experimental part:
Small molecules were synthesized by the Molecular Design and Synthesis laboratory, Rutgers Translational Sciences at Rutgers University, NJ, USA. To compare the effects of Exemplary Compound 14 to Comparative Example 100, cells (3×10^5/well) were seeded into the 96-well tissue culture plates and treated with different BMI1 inhibitors (from 10 nM to 10 μM) in appropriate media. Dose response curves were generated upon exposing GBM cells to different concentrations of Exemplary compound 14, Comparative Example 101, and Comparative Example 100 (0.010-10 μM) for 72 hours. Cells were counted using Beckman Coulter Vi-CELL Cell Viability Analyzer, and cell viability was confirmed by CellTiter-Glo Luminescent Cell Viability Assay (Promega, Madison, WI, USA) according to standard protocols and analyzed with a Victor 2 plate reader (Wallac, Turku, Finland). We then assessed the selectivity and potency in GBM cells vs primary GBM. Dose-response curves were generated in both spheres and monocultures and used to determine a sphere selectivity ratio (targeting Glioblastoma Initiating Cells), defined as EC50(U87)/EC50(spheres), for each compound.
On the technique in general: Cellular ATP, detected with luciferase, serves as a proxy for viable cell number.

Data set [2] is described as follows: Toxicity in preclinical mouse models. Format: in vivo.
Data set [3] has as its system P-gp. Description: Bi-directional Caco-2 transport assay. Format: in vitro ADME. As to conditions: human, Caco-2, Efflux Ratio (B-A/A-B). Background: Caco-2 cells form a polarised layer with tight junctions and transporters.

Take `COc1c(F)cc(Nc2nc(-c3c(C)nc4ccccn34)cs2)cc1F` [Compound 14, hydrochloride]: the “sphere selectivity ratio EC50(U87)/EC50(spheres)” value in data set [1] is “high selectivity for glioblastoma cancer stem cells”. Moreover, in data set [2], the toxicity in vivo result was “appear not to have toxicity in vivo”. `[2H]C1([2H])Oc2ccc(Nc3nc(-c4c(C)nc5ccccn45)cs3)cc2O1` [Compound 17, N-(benzo[d][1,3]dioxol-5-yl-2,2-d2)-4-(2-methylimidazo[1,2-c]pyridin-3-yl)thiazol-2-amine hydrochloride]: the efflux ratio at 90 min, 5 μM in data set [3] was less than 2.
